According to patent publication US5352667A, “Non-peptidic surrogates of the Arg-Gly-Asp sequence and pharmaceutical compositions comprising them” (priority 1991, dated 1994):

Tests used:
[1] = test system: CD4^+ T cell adhesion to 120 kD fragment of FN; experiment: Inhibition of activated CD4+ T cell adhesion to 120 kD fragment of FN; format: cell-based, human; conditions: for % inhibition of adhesion of activated CD4^+ T cell to 120 kD fragment of FN / % Adhesion of activated CD4^+ T cell to 120 kD fragment of FN: 0.2 mM peptides and surrogates, mAb anti-CD29 1/200, anti-VLA5 1/400 diluted; for % inhibition of adhesion of activated CD4^+ T cell to 120 kD fragment of FN: * P<0.05; for % Adhesion of activated CD4^+ T cell to 120 kD fragment of FN: PMA activated, none 43 ± 4; for T cell adhesion to FN, in words: 0.2 mM, 120 kD fragment of FN
Protocol: (§1) To examine the adhesive properties of the T cells, 1 μg/50 μl/well of either fibronectin (FN) (Sigma), the 120 kD cell attachment fragment of FN (Telios Pharm. Inc. San Diego, CA), or laminin (LN) (Sigma), were added to 96-flat bottom microtiter-wells for 12 h. Unbound proteins were then washed away and remaining binding sites were blocked with 0.1% bovine serum albumin (BSA) added to the wells for 2 h and washed. CD4+T cells were purified from peripheral blood mononuclear leukocytes obtained from healthy human donors. The mononuclear cells were isolated using a Ficoll gradient, washed and incubated in RPMI supplemented with 10% fetal calf serum (FCS) and antibiotics in petri dishes at 37° C. humidified CO2 incubator. After 2 h, the non-adherent cells were isolated and applied on nylon-wool columns (1.5 h). CD4^+ T cells were then negatively selected by exposure of the cells to a cocktail of anti-CD8, CD19, and CD14 monoclonal antibodies (mAb) conjugated to magnetic-beads (Advanced Magnetics, MA). Unbound cells were recovered and their phenotype was examined. Purity of the CD4^+ T cells was always greater than 92% as determined by FACScan.
(§2) The purified CD4^+ T cells were radioactively labeled with ^51 [Cr](New England Nuclear) in RPMI +20% FCS for 2 h and washed. The cells were counted and seeded (0.2×10^5 cells) on the precoated microtiter wells in the presence or the absence of the various inhibitors. Coating was made either with FN, the 120 kD cell-attachment fragment of FN or with control adhesive protein laminin (LN). The inhibitors were various surrogates according to the invention, other test molecules or mAb. After 30 min incubation (in […] CO2 -- humidified incubator) the T cells were activated by 10 ng/ml phorbol myristate acetate (PMA) and the percent of T cells attached to the protein substrates was measured. Unbound cells were washed away after 20-30 min, the bound cells were lysed and their radioactivity was measured using radioactive counter. The amount of the radioactivity of the cell lysates represent the matrix-adherent cells and percent binding was calculated in comparison to the total radioactivity added to the wells. Activated T cell adhesion to control wells or to wells coated with BSA was always 2-5%; the level of adhesion of the non-activated T cells was always below 5%. Where indicated, 1/200 diluted mAb anti-CD29 (anti-β1 mAb Serotec, GB), or 1/400 diluted anti-VLA5 (the β1α5 FN-integrin receptor) mAb (Telios Pharm. Inc. San Diego), or 0.2 mM of RGD, GRGDSPK or GRGESP peptides (Sigma) were used. The tested non-peptidic surrogates, 0.2 mM in PBS, were used to pretreat the T cells for 15 min before seeding the cells *, P<0.05. The results shown in Tables 1A, 1B and 1C represent data obtained from several experiments that produced essentially similar results.
(§3) The four RGD surrogates, AC-4.

[2] = test system: CD4^+ T cell adhesion to LN; experiment: Inhibition of activated CD4+ T cell adhesion to laminin (LN); format: cell-based, human; conditions: for % inhibition of adhesion of activated CD4^+ T cell to LN / % Adhesion of activated CD4^+ T cell to LN: 0.2 mM peptides and surrogates, mAb anti-CD29 1/200, anti-VLA5 1/400 diluted; for % inhibition of adhesion of activated CD4^+ T cell to LN: * P<0.05; for % Adhesion of activated CD4^+ T cell to LN: none 55 ± 5
Protocol: as §1, §2, §3

[3] = test system: B16-melanoma cells adhesion to FN; experiment: Inhibition of B16-melanoma cell adhesion to FN; format: cell-based, murine; conditions: for B-16 melanoma cell adhesion to FN, in words: Table 2A; for % inhibition of adhesion of B16-melanoma cells to FN / % Adhesion of B16-melanoma cells to FN: surrogates 0.2 mM; for % inhibition of adhesion of B16-melanoma cells to FN: * P<0.05; for % Adhesion of B16-melanoma cells to FN: none 75 ± 5
Protocol: To examine the adhesive properties of tumor cells, 1 μg/50μ/well of FN or 0.3μg/well of VN were added to 96-flat bottom microtiter wells for 12 h. Unbound proteins were then washed away and remaining binding sites were blocked with 0.1% BSA added to the wells for 2 h and washed. Murine B16-melanoma F-1 cells were metabolically labeled with ^35 S-methionine (New England Nuclear) for 2 h, chased for 18 h and extensively washed. The cell suspension was resuspened in RPMI supplemented with 1% BSA containing 1 mM CaCl2 and MgCl2. Tumor cell adhesion to control wells or to wells coated with BSA was always 2-5%. The tested non-peptidic surrogates, 0.2 mM in PBS, were used to pretreat the tumor cells for 15 min before seeding the cells *, P<0.05.
In a first series of experiments, the potential inhibitory action of the RGD surrogate SF-6,5 on adhesion of B16 melanoma cells to FN or VN was compared to that of the RGE surrogate SF-6,6 and to that of RGD, GRGDSPK and GRGESP peptides.
In a further set of experiments, the inhibitory activity of the RGD surrogates SF-6,5 and NS-11 on the adhesion of B16 murine melanoma cells to FN was compared to that of the GRGDSP peptide.

[4] = molecular target: T1, platelet GPIIb-IIIa receptor (Homo sapiens, UniProt P05106+P08514); experiment: Inhibition of ADP-induced platelet aggregation (platelet rich plasma); format: cell-based; conditions: for Inhibition of platelet aggregation, dose dependence, in words: FIG. 3; for Inhibition of platelet aggregation at fixed concentration, in words: FIG. 4, fixed sub-saturating 0.5 mM / 10μg/ml, 4 experiments
T1 construct: Platelet concentrates were prepared from human whole blood; endogenous in cells; host or cells: human platelets in platelet rich plasma
Protocol: To investigate the inhibitory role of the RGD analogues on adhesion, the platelet GPIIb-IIIa receptor which mediates platelet aggregation upon activation was used as a model.
Platelet concentrates were prepared from human whole blood in 10% adenine-citrate-dextrose in Fenwall bags (Baxter Travenol, Israel) followed by standard AABB protocol. Platelet rich plasma was prepared by centrifugation (2500 rpm for 5 min). Samples of platelets were counted in a Minos AST Cell Counter (Levoiselle, France). Cell aggregation was induced by […] and monitored at […] in a 4-channel Aggregometer (Bio-Data, Hatboro, Pa.). To evaluate the effect of the various RGD peptides and the peptide analogues, the platelet rich plasma was pre-incubated with the various inhibitors for 10 min at 37° C. with 10μsolutions followed by the induction of aggregation.
To examine the specificity of the inhibitory effect of the RGD-analogues on platelet aggregation, the cells were treated with various peptidic (RGD and GRGDSP) and non-peptidic (SF-6,6, SF-6,5 and AC-15) RGD analogues used at a fixed sub-saturating concentration of 0.5 mM.
An in vitro assay as described in Example 17 was carried out with the compound NS-11 to examine its ability to interfere with platelet aggregation, and compared it to the SF-6,5 surrogate.
Platelet rich plasma (PRP) was prepared from acid/citrate/dextrose anti-coagulated fresh human blood by differential centrifugation. Platelet aggregation was induced by […] and monitored at 695 nm by a 4-channel Aggregometer (Bio-Data, PA). To evaluate the effect of the RGDS peptide and the NS-8, NS-11 and NS-15 analogs, the PRP was preincubated with the inhibitors for 10 minutes at 37° C., prior to the induction of aggregation. […] In fact, 50% inhibition of platelet aggregation was achieved using a 30-fold lower concentration of NS-11 than that of RGDS.

| Compound | % inhibition of adhesion of activated CD4^+ T cell to 120 kD fragment of FN [1] | % Adhesion of activated CD4^+ T cell to 120 kD fragment of FN [1] | T cell adhesion to FN, in words [1] | % inhibition of adhesion of activated CD4^+ T cell to LN [2] | % Adhesion of activated CD4^+ T cell to LN [2] | B-16 melanoma cell adhesion to FN, in words [3] | % inhibition of adhesion of B16-melanoma cells to FN [3] | % Adhesion of B16-melanoma cells to FN [3] | inhibition at 100 µM ([4]; 0.1 mM, ADP-induced, read-out: Percent inhibition of aggregation) | inhibition at 300 µM ([4]; 0.3 mM, ADP-induced, read-out: Percent inhibition of aggregation) | Inhibition of platelet aggregation, dose dependence, in words [4] | IC50 ([4]; FIG. 3, ADP-induced) | Inhibition of platelet aggregation at fixed concentration, in words [4] | Inhibition of platelet aggregation, in words ([4]; Table 3) | T cell adhesion to LN, in words ([2]; 0.2 mM) |
| --- | --- | --- | --- | --- | --- | --- | --- | --- | --- | --- | --- | --- | --- | --- | --- |
| N=C(N)NCCCCCC(=O)NCCCCC(=O)O [SF-6,5, 6-aza-7-oxo-12-quanidino-dodecanoic acid] | 49% | 22 ± 2% | most prominent inhibition | 0% | 55 ± 6% | inhibited tumor cell adhesion to both FN and VN | 55% | 34 ± 4% | 25% | 55% | found to inhibit the aggregation of platelet rich plasma in a dose-dependent fashion | 300 µM | even higher than that of the GRGDSPK peptide | mild, though significant effect on aggregation |  |
| N=C(N)NCCCCCC(=O)NCCCCCC(=O)O [SF-6,6] | 0% | 46 ± 2% | did not inhibit T cell adhesion to both FN and LN | 0% | 52 ± 6% |  | 0% | 75 ± 9% |  |  | but not SF-6,6, was found to inhibit the aggregation of platelet rich plasma |  | very limited inhibitory effect on platelet aggregation |  | did not inhibit T cell adhesion to both FN and LN |
| GRGDSPK [RGD peptide (Sigma)] | 54% | 20 ± 2% | specifically inhibited | 0% | 53 ± 4% | found to be inhibited by the GRGDSPK peptide | 80% | 15 ± 4% |  |  |  |  | marked inhibitory effect on platelet aggregation |  |  |
